Data reported in article PMC10139140, “Synthesis of Novel 2-(Cyclopentylamino)thiazol-4(5H)-one Derivatives with Potential Anticancer, Antioxidant, and 11β-HSD Inhibitory Activities” (International Journal of Molecular Sciences, 2023).

How the values were obtained:
11β-HSD1 = target: T1, 11β-HSD1 (Homo sapiens, UniProt P28845); assay: Inhibition of 11β-HSD1 (cortisone to cortisol, human liver microsomes, cortisol ELISA); assay type: biochemical
T1 construct: Human liver microsomes were used as a source of 11β-HSD1 enzyme; tissue XenoTech Lot No. 1410013; host or cells: pooled human liver microsomes, mixed gender
T1 sequence (P28845 whole entry): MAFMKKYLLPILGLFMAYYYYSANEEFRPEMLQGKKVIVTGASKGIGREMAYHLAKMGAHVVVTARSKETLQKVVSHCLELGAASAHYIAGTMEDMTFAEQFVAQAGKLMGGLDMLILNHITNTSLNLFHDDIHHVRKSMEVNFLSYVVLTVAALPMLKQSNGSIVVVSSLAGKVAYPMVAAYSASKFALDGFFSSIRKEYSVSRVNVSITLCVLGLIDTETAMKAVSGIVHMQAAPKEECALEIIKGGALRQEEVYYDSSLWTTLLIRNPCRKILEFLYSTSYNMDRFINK
In short: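 Human liver microsomal conversion of cortisone to cortisol, incubated 2.5 h at 37 °C and stopped with 18β-glycyrrhetinic acid. Cortisol was quantified by ELISA against inhibitor-free controls.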

11β-HSD2 = target: T2, 11β-HSD2 (Homo sapiens, UniProt P80365); assay: Inhibition of 11β-HSD2 (cortisol to cortisone, human microsomes, cortisol ELISA); assay type: biochemical; conditions: 2.5 h, 37 °C
T2 construct: Human liver microsomes were used as a source of 11β-HSD2 enzyme; tissue XenoTech Lot No. 1710160; host or cells: human kidney microsomes, mixed gender (method text says human liver microsomes)
T2 sequence (P80365 1-405): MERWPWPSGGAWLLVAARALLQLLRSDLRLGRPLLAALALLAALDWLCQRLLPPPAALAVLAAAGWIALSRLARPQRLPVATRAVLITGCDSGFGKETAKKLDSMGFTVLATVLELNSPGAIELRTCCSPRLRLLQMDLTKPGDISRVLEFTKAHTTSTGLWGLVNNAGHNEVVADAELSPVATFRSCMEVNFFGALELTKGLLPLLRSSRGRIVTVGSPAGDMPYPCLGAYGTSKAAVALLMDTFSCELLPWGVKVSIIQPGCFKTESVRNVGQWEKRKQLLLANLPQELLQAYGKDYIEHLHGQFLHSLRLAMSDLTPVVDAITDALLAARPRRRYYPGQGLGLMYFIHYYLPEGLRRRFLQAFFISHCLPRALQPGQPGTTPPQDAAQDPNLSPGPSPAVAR
Method: The resulting solution with a final volume of 100 µL was incubated for 2.5 h at 37 °C. […] The level of unreacted cortisol was measured by a commercially available ELISA kit.

BJ cells = assay: MTS metabolic activity assay, BJ cells; assay type: cell-based; conditions: Homo sapiens, 72 h, read-out: Cell metabolic activity (MTS), % of untreated control
In short: (§1)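 Metabolic activity was measured by MTS reduction following a 72 h exposure to a range of compound concentrations. Cells had been plated 24 h beforehand at standard density, with fewer BJ cells per well. Values are percentages relative to untreated controls.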

[1] = test system: human colon carcinoma (Caco-2); assay: MTS metabolic activity assay, Caco-2 cells; assay type: cell-based; conditions: Homo sapiens, 72 h, read-out: Cell metabolic activity (MTS), % of untreated control
In short: as §1

[2] = test system: human pancreatic carcinoma (PANC-1); assay: MTS metabolic activity assay, PANC-1 cells; assay type: cell-based
In short: as §1

glioma (U-118 MG) = assay: MTS metabolic activity assay, U-118 MG cells; assay type: cell-based; conditions: 72 h
In short: as §1

[3] = test system: skin melanoma (SK-MEL-30); assay: MTS metabolic activity assay, SK-MEL-30 cells; assay type: cell-based; conditions: 72 h
In short: as §1

[4] = test system: human breast carcinoma (MDA-MB-231); assay: MTS metabolic activity assay, MDA-MB-231 cells; assay type: cell-based; conditions: Homo sapiens, 72 h, read-out: Cell metabolic activity (MTS), % of untreated control
In short: as §1

With `O=C1N=C(NC2CCCC2)SC1c1ccccc1` (stereo not drawn) [Compound 3f, 2-(cyclopentylamino)-5-phenylthiazol-4(5H)-one] as the molecule, how does the IC50 (11β-HSD1) read?
Its IC50 is 1100 ± 80 nM.

What about the inhibition at 10 µM (11β-HSD1; 10 µM, 2.5 h, 37 °C) of the same molecule?
The inhibition at 10 µM was 64.3 ± 5.07%.

And the inhibition at 10 µM (11β-HSD2)?
The inhibition at 10 µM was 36.5 ± 3.07%.

And the viability at 10 µM (BJ cells; 10 µM)?
Its viability at 10 µM is 107%.

What about the viability at 20 µM (BJ cells; 20 µM) of the same molecule?
Its viability at 20 µM is 102%.

And the viability at 50 µM (BJ cells; 50 µM)?
Its viability at 50 µM is 102%.

What about the viability at 100 µM (BJ cells; 100 µM) of the same molecule?
Its viability at 100 µM is 106%.

What about the viability at 200 µM (BJ cells; 200 µM) of the same molecule?
The viability at 200 µM was 105%.

What about the viability at 300 µM (BJ cells; 300 µM) of the same molecule?
The viability at 300 µM was 106%.

What about the viability at 500 µM (BJ cells; 500 µM) of the same molecule?
Its viability at 500 µM is 96.8%.

What about the viability at 10 µM ([1]; Caco-2, 10 µM) of the same molecule?
Its viability at 10 µM is 91.3%.

What about the viability at 20 µM ([1]; Caco-2, 20 µM) of the same molecule?
Its viability at 20 µM is 90.4%.

What about the viability at 50 µM ([1]; Caco-2, 50 µM) of the same molecule?
The viability at 50 µM was 93.7%.

What about the viability at 100 µM ([1]; Caco-2, 100 µM) of the same molecule?
The viability at 100 µM was 87.4%.

And the viability at 200 µM ([1]; Caco-2, 200 µM)?
The viability at 200 µM was 89.7%.

And the viability at 300 µM ([1]; Caco-2, 300 µM)?
The viability at 300 µM was 87.1%.

What about the viability at 500 µM ([1]; Caco-2, 500 µM) of the same molecule?
The viability at 500 µM was 75.2%.

And the viability at 10 µM ([2]; Homo sapiens, PANC-1, 10 µM, 72 h, read-out: Cell metabolic activity (MTS), % of untreated control)?
Its viability at 10 µM is 110%.

What about the viability at 20 µM ([2]; Homo sapiens, PANC-1, 20 µM, 72 h, read-out: Cell metabolic activity (MTS), % of untreated control) of the same molecule?
The viability at 20 µM was 102%.

What about the viability at 50 µM ([2]; Homo sapiens, PANC-1, 50 µM, 72 h, read-out: Cell metabolic activity (MTS), % of untreated control) of the same molecule?
Its viability at 50 µM is 117%.

And the viability at 100 µM ([2]; Homo sapiens, PANC-1, 100 µM, 72 h, read-out: Cell metabolic activity (MTS), % of untreated control)?
Its viability at 100 µM is 117%.

And the viability at 200 µM ([2]; Homo sapiens, PANC-1, 200 µM, 72 h, read-out: Cell metabolic activity (MTS), % of untreated control)?
Its viability at 200 µM is 137%.

What about the viability at 300 µM ([2]; Homo sapiens, PANC-1, 300 µM, 72 h, read-out: Cell metabolic activity (MTS), % of untreated control) of the same molecule?
Its viability at 300 µM is 141%.

And the viability at 500 µM ([2]; Homo sapiens, PANC-1, 500 µM, 72 h, read-out: Cell metabolic activity (MTS), % of untreated control)?
The viability at 500 µM was 141%.

And the “highest increase in proliferation (cell metabolic activity)” value ([2]; PANC-1, 72 h, range given for the named substances together)?
The value was 115 to 144%.

What about the viability at 10 µM (glioma (U-118 MG); Homo sapiens, U-118-MG, U118-MG, 10 µM, read-out: Cell metabolic activity (MTS), % of untreated control) of the same molecule?
Its viability at 10 µM is 116%.

What about the viability at 20 µM (glioma (U-118 MG); Homo sapiens, U-118-MG, U118-MG, 20 µM, read-out: Cell metabolic activity (MTS), % of untreated control) of the same molecule?
The viability at 20 µM was 114%.

And the viability at 50 µM (glioma (U-118 MG); Homo sapiens, U-118-MG, U118-MG, 50 µM, read-out: Cell metabolic activity (MTS), % of untreated control)?
Its viability at 50 µM is 114%.

And the viability at 100 µM (glioma (U-118 MG); Homo sapiens, U-118-MG, U118-MG, 100 µM, read-out: Cell metabolic activity (MTS), % of untreated control)?
Its viability at 100 µM is 115%.

And the viability at 200 µM (glioma (U-118 MG); Homo sapiens, U-118-MG, U118-MG, 200 µM, read-out: Cell metabolic activity (MTS), % of untreated control)?
The viability at 200 µM was 110%.

What about the viability at 300 µM (glioma (U-118 MG); Homo sapiens, U-118-MG, U118-MG, 300 µM, read-out: Cell metabolic activity (MTS), % of untreated control) of the same molecule?
Its viability at 300 µM is 106%.

And the viability at 500 µM (glioma (U-118 MG); Homo sapiens, U-118-MG, U118-MG, 500 µM, read-out: Cell metabolic activity (MTS), % of untreated control)?
The viability at 500 µM was 86.8%.

What about the “highest increase in proliferation (cell metabolic activity)” value (glioma (U-118 MG); U-118 MG, range given for the named substances together) of the same molecule?
The value was 115 to 144%.

What about the viability at 10 µM ([3]; Homo sapiens, SK-MEL-30, 10 µM, read-out: Cell metabolic activity (MTS), % of untreated control) of the same molecule?
Its viability at 10 µM is 96.1%.

And the viability at 20 µM ([3]; Homo sapiens, SK-MEL-30, 20 µM, read-out: Cell metabolic activity (MTS), % of untreated control)?
Its viability at 20 µM is 98.2%.

What about the viability at 50 µM ([3]; Homo sapiens, SK-MEL-30, 50 µM, read-out: Cell metabolic activity (MTS), % of untreated control) of the same molecule?
Its viability at 50 µM is 99.7%.

What about the viability at 100 µM ([3]; Homo sapiens, SK-MEL-30, 100 µM, read-out: Cell metabolic activity (MTS), % of untreated control) of the same molecule?
The viability at 100 µM was 100%.

What about the viability at 200 µM ([3]; Homo sapiens, SK-MEL-30, 200 µM, read-out: Cell metabolic activity (MTS), % of untreated control) of the same molecule?
The viability at 200 µM was 93.8%.

And the viability at 300 µM ([3]; Homo sapiens, SK-MEL-30, 300 µM, read-out: Cell metabolic activity (MTS), % of untreated control)?
The viability at 300 µM was 73.2%.

What about the viability at 500 µM ([3]; Homo sapiens, SK-MEL-30, 500 µM, read-out: Cell metabolic activity (MTS), % of untreated control) of the same molecule?
The viability at 500 µM was 50%.

What about the “cell viability, decreases to” value ([3]; SK-MEL-30, higher concentrations, range given for the most effective substances together) of the same molecule?
The value was 20–65%.

What about the viability at 10 µM ([4]; MDA-MB-231, 10 µM) of the same molecule?
Its viability at 10 µM is 96.2%.

And the viability at 20 µM ([4]; MDA-MB-231, 20 µM)?
The viability at 20 µM was 100%.

What about the viability at 50 µM ([4]; MDA-MB-231, 50 µM) of the same molecule?
The viability at 50 µM was 95.3%.

What about the viability at 100 µM ([4]; MDA-MB-231, 100 µM) of the same molecule?
Its viability at 100 µM is 95.9%.

And the viability at 200 µM ([4]; MDA-MB-231, 200 µM)?
The viability at 200 µM was 87.8%.

What about the viability at 300 µM ([4]; MDA-MB-231, 300 µM) of the same molecule?
The viability at 300 µM was 79.1%.

And the viability at 500 µM ([4]; MDA-MB-231, 500 µM)?
The viability at 500 µM was 78.2%.
